Test results from PubChem BioAssay (NCI).
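Protocol summary: plate cells (96-well), add compound at 5 concentrations, incubate 48 h, interpolate endpoints linearly. At the GI50, growth is halved. TGI: concentration producing complete growth inhibition.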

What was measured:
Assay in all cases: NCI anticancer screen, dose series, 48 h
U251 CNS = tested on: U251 CNS
HOP-62 NSCLC = tested on: HOP-62 NSCLC
MDA-MB-435 = tested on: MDA-MB-435
SK-OV-3 ovarian = tested on: SK-OV-3 ovarian
SNB-75 CNS = tested on: SNB-75 CNS
BT-549 breast = tested on: BT-549 breast
OVCAR-4 ovarian = tested on: OVCAR-4 ovarian
NCI/ADR-RES ovarian = tested on: NCI/ADR-RES ovarian
NCI-H226 lung = tested on: NCI-H226 lung
786-0 renal = tested on: 786-0 renal
NCI-H522 lung = tested on: NCI-H522 lung
OVCAR-5 ovarian = tested on: OVCAR-5 ovarian
M14 melanoma = tested on: M14 melanoma
HCT-116 colon = tested on: HCT-116 colon
SW-620 colon = tested on: SW-620 colon
MDA-MB-231 breast = tested on: MDA-MB-231 breast
OVCAR-3 ovarian = tested on: OVCAR-3 ovarian
A549 NSCLC = tested on: A549 NSCLC
PC-3 prostate = tested on: PC-3 prostate
ACHN renal = tested on: ACHN renal
RXF 393 renal = tested on: RXF 393 renal
KM12 colon = tested on: KM12 colon
COLO 205 colon = tested on: COLO 205 colon
HOP-92 NSCLC = tested on: HOP-92 NSCLC
HCT-15 colon = tested on: HCT-15 colon
SNB-19 CNS = tested on: SNB-19 CNS
HCC-2998 colon = tested on: HCC-2998 colon
DU-145 prostate = tested on: DU-145 prostate
MALME-3M melanoma = tested on: MALME-3M melanoma
LOX IMVI melanoma = tested on: LOX IMVI melanoma
A498 renal = tested on: A498 renal
SK-MEL-5 melanoma = tested on: SK-MEL-5 melanoma
MCF7 breast = tested on: MCF7 breast
RPMI-8226 leukemia = tested on: RPMI-8226 leukemia
HL-60(TB) leukemia = tested on: HL-60(TB) leukemia
EKVX NSCLC = tested on: EKVX NSCLC
HS 578T breast = tested on: HS 578T breast
T-47D breast = tested on: T-47D breast
OVCAR-8 ovarian = tested on: OVCAR-8 ovarian
SF-539 CNS = tested on: SF-539 CNS
SF-268 CNS = tested on: SF-268 CNS
NCI-H23 lung = tested on: NCI-H23 lung
UO-31 renal = tested on: UO-31 renal
SK-MEL-2 melanoma = tested on: SK-MEL-2 melanoma
CCRF-CEM leukemia = tested on: CCRF-CEM leukemia
SK-MEL-28 melanoma = tested on: SK-MEL-28 melanoma
SN12C renal = tested on: SN12C renal
SR leukemia = tested on: SR leukemia
NCI-H460 lung = tested on: NCI-H460 lung
SF-295 CNS = tested on: SF-295 CNS
HT29 colon = tested on: HT29 colon
TK-10 renal = tested on: TK-10 renal
MOLT-4 leukemia = tested on: MOLT-4 leukemia

c1ccc2[nH]c(-c3ccc(Nc4nc(N5CCCCC5)nc(N5CCOCC5)n4)cc3)nc2c1
GI50 (U251 CNS): 2.18 µM
TGI (U251 CNS): 10 µM
GI50 (HOP-62 NSCLC): 1.92 µM
TGI (HOP-62 NSCLC): 4.32 µM
GI50 (MDA-MB-435): 2.06 µM
TGI (MDA-MB-435): 4.59 µM
GI50 (SK-OV-3 ovarian): 2.37 µM
TGI (SK-OV-3 ovarian): 5.43 µM
GI50 (SNB-75 CNS): 2.1 µM
TGI (SNB-75 CNS): 16.9 µM
GI50 (BT-549 breast): 2.07 µM
TGI (BT-549 breast): 5.2 µM
GI50 (OVCAR-4 ovarian): 3.98 µM
TGI (OVCAR-4 ovarian): 25.4 µM
GI50 (NCI/ADR-RES ovarian): 4.69 µM
TGI (NCI/ADR-RES ovarian): 55.2 µM
GI50 (NCI-H226 lung): 3.2 µM
TGI (NCI-H226 lung): 17.7 µM
GI50 (786-0 renal): 1.54 µM
TGI (786-0 renal): 3.21 µM
GI50 (NCI-H522 lung): 2.36 µM
TGI (NCI-H522 lung): 6.22 µM
GI50 (OVCAR-5 ovarian): 4.06 µM
TGI (OVCAR-5 ovarian): 29.3 µM
GI50 (M14 melanoma): 2.05 µM
TGI (M14 melanoma): 4.72 µM
GI50 (HCT-116 colon): 1.91 µM
TGI (HCT-116 colon): 3.87 µM
GI50 (SW-620 colon): 2.34 µM
TGI (SW-620 colon): 5.87 µM
GI50 (MDA-MB-231 breast): 2.5 µM
TGI (MDA-MB-231 breast): 7.52 µM
GI50 (OVCAR-3 ovarian): 2.4 µM
TGI (OVCAR-3 ovarian): 6.19 µM
GI50 (A549 NSCLC): 3.27 µM
TGI (A549 NSCLC): 13.2 µM
GI50 (PC-3 prostate): 3.05 µM
TGI (PC-3 prostate): 9.13 µM
GI50 (ACHN renal): 3.14 µM
TGI (ACHN renal): > 100 µM
GI50 (RXF 393 renal): 0.808 µM
TGI (RXF 393 renal): 3.28 µM
GI50 (KM12 colon): 2.85 µM
TGI (KM12 colon): 9.54 µM
GI50 (COLO 205 colon): 1.86 µM
TGI (COLO 205 colon): 3.92 µM
GI50 (HOP-92 NSCLC): 1.99 µM
TGI (HOP-92 NSCLC): 4.32 µM
GI50 (HCT-15 colon): 1.88 µM
TGI (HCT-15 colon): 4.38 µM
GI50 (SNB-19 CNS): 3.73 µM
TGI (SNB-19 CNS): 81.9 µM
GI50 (HCC-2998 colon): 3.74 µM
TGI (HCC-2998 colon): > 100 µM
GI50 (DU-145 prostate): 4.28 µM
TGI (DU-145 prostate): > 100 µM
GI50 (MALME-3M melanoma): 1.87 µM
TGI (MALME-3M melanoma): 3.57 µM
GI50 (LOX IMVI melanoma): 1.75 µM
TGI (LOX IMVI melanoma): 3.58 µM
GI50 (A498 renal): 1.77 µM
TGI (A498 renal): 4.18 µM
GI50 (SK-MEL-5 melanoma): 1.78 µM
TGI (SK-MEL-5 melanoma): 3.3 µM
GI50 (MCF7 breast): 2.4 µM
TGI (MCF7 breast): 7.9 µM
GI50 (RPMI-8226 leukemia): 2.23 µM
TGI (RPMI-8226 leukemia): 6.58 µM
GI50 (HL-60(TB) leukemia): 2.42 µM
TGI (HL-60(TB) leukemia): 5.8 µM
GI50 (EKVX NSCLC): 2.68 µM
TGI (EKVX NSCLC): > 100 µM
GI50 (HS 578T breast): 2.56 µM
TGI (HS 578T breast): 8.61 µM
GI50 (T-47D breast): 1.96 µM
TGI (T-47D breast): 4.58 µM
GI50 (OVCAR-8 ovarian): 3.24 µM
TGI (OVCAR-8 ovarian): 14.3 µM
GI50 (SF-539 CNS): 2.14 µM
TGI (SF-539 CNS): 5.75 µM
GI50 (SF-268 CNS): 3.21 µM
TGI (SF-268 CNS): 20.1 µM
GI50 (NCI-H23 lung): 3.05 µM
TGI (NCI-H23 lung): 15.7 µM
GI50 (UO-31 renal): 2 µM
TGI (UO-31 renal): 5.14 µM
GI50 (SK-MEL-2 melanoma): 2.34 µM
TGI (SK-MEL-2 melanoma): 5.36 µM
GI50 (CCRF-CEM leukemia): 3.25 µM
TGI (CCRF-CEM leukemia): > 100 µM
GI50 (SK-MEL-28 melanoma): 1.8 µM
TGI (SK-MEL-28 melanoma): 4.02 µM
GI50 (SN12C renal): 5.4 µM
TGI (SN12C renal): 53.2 µM
GI50 (SR leukemia): 0.73 µM
TGI (SR leukemia): 5.73 µM
GI50 (NCI-H460 lung): 2.44 µM
TGI (NCI-H460 lung): 6.18 µM
GI50 (SF-295 CNS): 1.85 µM
TGI (SF-295 CNS): 4.6 µM
GI50 (HT29 colon): 2.44 µM
TGI (HT29 colon): 5.56 µM
GI50 (TK-10 renal): 3.21 µM
TGI (TK-10 renal): 9.26 µM
GI50 (MOLT-4 leukemia): 2.73 µM
TGI (MOLT-4 leukemia): 7.89 µM
